Test results taken from US11434242B2, “Dopamine-b-hydroxylase inhibitors” (BIAL-PORTELA & Cª, S.A., priority 2017, dated 2022).
Marks after values point to notes of the source that are not given here.

Biological target: T1, Dopamine beta hydroxylase (Homo sapiens, UniProt P09172)
T1 construct: 125 μl of plasma; tissue Instituto Português do Sangue Transplantação; host or cells: human plasma from healthy donors
T1 sequence (P09172 40-617 limits assumed): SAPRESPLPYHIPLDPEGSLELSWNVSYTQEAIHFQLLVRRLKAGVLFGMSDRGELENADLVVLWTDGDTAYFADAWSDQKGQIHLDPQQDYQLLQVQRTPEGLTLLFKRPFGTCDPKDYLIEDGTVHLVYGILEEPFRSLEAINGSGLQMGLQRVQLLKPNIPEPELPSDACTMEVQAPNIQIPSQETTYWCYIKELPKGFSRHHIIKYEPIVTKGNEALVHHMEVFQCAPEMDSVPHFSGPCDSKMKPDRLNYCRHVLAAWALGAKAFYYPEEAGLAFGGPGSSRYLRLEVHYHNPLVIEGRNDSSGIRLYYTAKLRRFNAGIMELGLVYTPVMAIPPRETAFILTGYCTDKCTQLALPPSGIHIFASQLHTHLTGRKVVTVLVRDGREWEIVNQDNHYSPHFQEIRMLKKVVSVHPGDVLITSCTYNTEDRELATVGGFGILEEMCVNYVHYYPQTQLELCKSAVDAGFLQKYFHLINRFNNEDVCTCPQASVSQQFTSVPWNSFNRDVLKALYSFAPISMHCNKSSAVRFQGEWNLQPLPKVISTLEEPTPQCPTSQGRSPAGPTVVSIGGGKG
Test: Dopamine beta hydroxylase activity in human plasma
Type: biochemical
Details: for Plasma (0.01 μM), activity in % of control / Plasma (0.01 μM), activity in % of control, re-test (asterisked): inhibitor 0.01 μM; for Plasma (0.1 μM), activity in % of control / Plasma (0.1 μM), activity in % of control, re-test (asterisked): inhibitor 0.1 μM; for Plasma (0.01 μM), activity in % of control, re-test (asterisked) / Plasma (0.1 μM), activity in % of control, re-test (asterisked): re-tested under the same experimental conditions, asterisked data believed to be correct
Procedure, shortened: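 Octopamine production from tyramine over 45 min at 37° C, measured photometrically at 330 nm after SCX extraction and periodate oxidation against an octopamine standard curve, indicates plasma DβH activity. Compounds tested at final 10, 100 and 1000 nM in human plasma, pH 5.0 cofactor buffer, 10 min preincubation; results as % of control.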

SMILES | Plasma (0.01 μM), activity in % of control | Plasma (0.1 μM), activity in % of control | Plasma (0.01 μM), activity in % of control, re-test (asterisked) | Plasma (0.1 μM), activity in % of control, re-test (asterisked)
CN(CCc1[nH]c(=S)n2c1C[C@@H](c1c(F)ccc(Cl)c1F)C2)C(=O)c1cccnc1 [Example 226, (S)—N-(2-(6-(3-chloro-2,6-difluorophenyl)-3-thioxo-2,5,6,7-tetrahydro-3H-pyrrolo[1,2-c]imidazol-1-yl)ethyl)-N-methylnicotinamide] | 100.8 % of control | 47.4 % of control | – | –
CN(CCc1[nH]c(=S)n2c1C[C@@H](c1c(F)ccc(Cl)c1F)C2)C(=O)N1CCCC1 [Example 227, (S)—N-(2-(6-(3-chloro-2,6-difluorophenyl)-3-thioxo-2,5,6,7-tetrahydro-3H-pyrrolo[1,2-c]imidazol-1-yl)ethyl)-N-methylpyrrolidine-1-carboxamide] | 86.8 % of control | 54.9 % of control | – | –
Cc1noc(Cc2[nH]c(=S)n3c2C[C@@H](c2c(F)ccc(Cl)c2F)C3)n1 [Example 228, (S)-6-(3-chloro-2,6-difluorophenyl)-1-((3-methyl-1,2,4-oxadiazol-5-yl)methyl)-6,7-dihydro-2H-pyrrolo[1,2-c]imidazole-3(5H)-thione] | 90.2 % of control | 56.0 % of control | – | –
Cn1c(CC(=O)O)c2n(c1=S)C[C@@H](c1c(F)c(F)cc(F)c1F)C2 [Example 229, (R)-2-(2-methyl-6-(2,3,5,6-tetrafluorophenyl)-3-thioxo-3,5,6,7-tetrahydro-2H-pyrrolo[1,2-c]imidazol-1-yl)acetic Acid] | 84.3 % of control | 38.3 % of control | – | –
Cn1c(CC(=O)O)c2n(c1=S)C[C@H](c1cc(Cl)ccc1F)C2 [Example 230, (S)-2-(6-(5-chloro-2-fluorophenyl)-2-methyl-3-thioxo-2,5,6,7-tetrahydro-3H-pyrrolo[1,2-c]imidazol-1-yl)acetic acid] | 82.0 % of control | 41.6 % of control | – | –
Cn1c(CC(=O)N2CCOCC2)c2n(c1=S)C[C@H](c1c(F)ccc(Br)c1F)C2 [Example 233, (S)-2-(6-(3-bromo-2,6-difluorophenyl)-2-methyl-3-thioxo-2,5,6,7-tetrahydro-3H-pyrrolo[1,2-c]imidazol-1-yl)-1-morpholinoethan-1-one] | 83.8 % of control | 66.8 % of control | 59.3* % of control | 9.7* % of control
Cn1c(C2(C(=O)N[C@@H]3CCOC3)CC2)c2n(c1=S)C[C@H](c1c(F)ccc(Br)c1F)C2 [Example 234, 1-((S)-6-(3-bromo-2,6-difluorophenyl)-2-methyl-3-thioxo-2,5,6,7-tetrahydro-3H-pyrrolo[1,2-c]imidazol-1-yl)-N—((R)-tetrahydrofuran-3-yl)cyclopropane-1-carboxamide] | 43.4 % of control | 12.2 % of control | – | –
Cn1c(CC(=O)N2CCS(=O)(=O)CC2)c2n(c1=S)C[C@H](c1c(F)ccc(Br)c1F)C2 [Example 235, (S)-2-(6-(3-bromo-2,6-difluorophenyl)-2-methyl-3-thioxo-2,5,6,7-tetrahydro-3H-pyrrolo[1,2-c]imidazol-1-yl)-1-(1,1-dioxidothiomorpholino)ethan-1-one] | 11.4 % of control | 1.2 % of control | – | –
CC(C)NC(=O)Cc1c2n(c(=S)n1C)C[C@H](c1c(F)ccc(Cl)c1F)C2 [Example 236, (S)-2-(6-(3-chloro-2,6-difluorophenyl)-2-methyl-3-thioxo-2,5,6,7-tetrahydro-3H-pyrrolo[1,2-c]imidazol-1-yl)-N-isopropylacetamide] | 104.2 % of control | 51.0 % of control | – | –
Cn1c(CC(=O)N2CCOCC2)c2n(c1=S)C[C@@H](c1c(F)ccc(F)c1F)C2 [Example 237, (R)-2-(2-methyl-3-thioxo-6-(2,3,6-trifluorophenyl)-2,5,6,7-tetrahydro-3H-pyrrolo[1,2-c]imidazol-1-yl)-1-morpholinoethan-1-one] | 92.9 % of control | 61.6 % of control | – | –
Cn1c(C2(C(=O)NCCS(C)(=O)=O)CC2)c2n(c1=S)C[C@H](c1c(F)ccc(Br)c1F)C2 [Example 238, (S)-1-(6-(3-bromo-2,6-difluorophenyl)-2-methyl-3-thioxo-2,5,6,7-tetrahydro-3H-pyrrolo[1,2-c]imidazol-1-yl)-N-(2-(methylsulfonyl)ethyl)cyclopropane-1-carboxamide] | 93.4 % of control | 88.5 % of control | – | –
Cn1c(CC(=O)NC2CCS(=O)(=O)CC2)c2n(c1=S)C[C@@H](c1c(F)ccc(F)c1F)C2 [Example 239, (R)—N-(1,1-dioxidotetrahydro-2H-thiopyran-4-yl)-2-(2-methyl-3-thioxo-6-(2,3,6-trifluorophenyl)-2,5,6,7-tetrahydro-3H-pyrrolo[1,2-c]imidazol-1-yl)acetamide] | 60.1 % of control | 3.9 % of control | – | –
Cn1c(CC(N)=O)c2n(c1=S)C[C@H](c1c(F)ccc(Br)c1F)C2 [Example 240, (S)-2-(6-(3-bromo-2,6-difluorophenyl)-2-methyl-3-thioxo-2,5,6,7-tetrahydro-3H-pyrrolo[1,2-c]imidazol-1-yl)acetamide] | 76.1 % of control | 39.2 % of control | – | –
Cn1c(CC(=O)N2CCC[C@H]2CO)c2n(c1=S)C[C@H](c1c(F)ccc(Br)c1F)C2 [Example 241, 2-((S)-6-(3-bromo-2,6-difluorophenyl)-2-methyl-3-thioxo-2,5,6,7-tetrahydro-3H-pyrrolo[1,2-c]imidazol-1-yl)-1-((S)-2-(hydroxymethyl)pyrrolidin-1-yl)ethan-1-one] | 51.7 % of control | 8.9 % of control | – | –
Cn1c(CC(=O)N2CCOCC2)c2n(c1=S)C[C@@H](c1c(F)c(F)cc(F)c1F)C2 [Example 242, (R)-2-(2-methyl-6-(2,3,5,6-tetrafluorophenyl)-3-thioxo-2,5,6,7-tetrahydro-3H-pyrrolo[1,2-c]imidazol-1-yl)-1-morpholinoethan-1-one] | 91.5 % of control | 53.6 % of control | – | –
Cn1c(CC(=O)N[C@@H]2CCOC2)c2n(c1=S)C[C@@H](c1c(F)c(F)cc(F)c1F)C2 [Example 243] | 38.0 % of control | 4.4 % of control | 87.3* % of control | 37.6* % of control
Cn1c(CC(=O)N[C@@H]2CCOC2)c2n(c1=S)C[C@@H](c1c(F)ccc(F)c1F)C2 [Example 244, 2-((R)-2-methyl-3-thioxo-6-(2,3,6-trifluorophenyl)-2,5,6,7-tetrahydro-3H-pyrrolo[1,2-c]imidazol-1-yl)-N—((R)-tetrahydrofuran-3-yl)acetamide] | 83.6 % of control | 32.9 % of control | – | –
Cn1c(CC(=O)NC2CCCC2)c2n(c1=S)C[C@@H](c1cc(Cl)ccc1F)C2 [Example 245, (R)-2-(6-(5-chloro-2-fluorophenyl)-2-methyl-3-thioxo-2,5,6,7-tetrahydro-3H-pyrrolo[1,2-c]imidazol-1-yl)-N-cyclopentylacetamide] | 107.8 % of control | 93 % of control | – | –
Cn1c(CC(=O)N[C@@H]2CCOC2)c2n(c1=S)C[C@@H](c1cc(Cl)ccc1F)C2 [Example 246, 2-((R)-6-(5-chloro-2-fluorophenyl)-2-methyl-3-thioxo-2,5,6,7-tetrahydro-3H-pyrrolo[1,2-c]imidazol-1-yl)-N—((R)-tetrahydrofuran-3-yl)acetamide] | 115.2 % of control | 80.3 % of control | – | –
COC[C@@H]1CCCN1C(=O)Cc1c2n(c(=S)n1C)C[C@@H](c1c(F)ccc(F)c1F)C2 [Example 247, 1-((S)-2-(methoxymethyl)pyrrolidin-1-yl)-2-((R)-2-methyl-3-thioxo-6-(2,3,6-trifluorophenyl)-2,5,6,7-tetrahydro-3H-pyrrolo[1,2-c]imidazol-1-yl)ethan-1-one] | 81.7 % of control | 35.9 % of control | – | –
